Experimental data published in publication PMC11359963 (Pharmaceutics, 2024).
Non-standard residues stand in square brackets, D forms with d. Residues, ends and D or L forms follow the SMILES beside them. β3hF = N[C@H](CC(=O)O)Cc1ccccc1

Assays:
[1] = 100 μg/mL; unpublished
[2] = tested on: contact sensitivity to oxazolone mouse model; assay: Contact sensitivity to oxazolone; assay type: in vivo; settings: 0.1% ointment on auricles
Source text: (§1) C57Bl/6 female mice, 8–10 weeks old and weighing 19–22 g, were delivered by the Breeding Centre of Laboratory Animals at the Institute of Occupational Medicine, Łódź, Poland and used for this study. Mice had free access to granulated food and filtered water. The local ethics committee at the Institute of Immunology and Experimental Therapy, Wrocław, Poland, approved this study (permission #37/2012).
(§2) Blood smears were made on microscopic glasses, and the preparations were dried and stained with Giemsa and May–Grünwald dyes. The blood picture was evaluated in a light microscope at 1000× magnification in immersion oil. Up to 100 cells were counted per preparation. The results were shown as a percentage of mean values of respective cell types: mature neutrophils, band forms of neutrophils, eosinophils, lymphocytes, and monocytes.
The test was performed as described by others, with some modifications. Mice were shaved on the abdomen and after 24 h, 100 µL of 0.5% oxazolone in acetone was applied topically. […] The ear edema was measured after 24 h using a spring caliper. […]
Five to nine mice per group were used in the experiments. […] Nonparametric data were evaluated with the Kruskal–Wallis analysis of variance (ANOVA of K–W), as indicated in the text. Significance was determined at p < 0.05. […]

TNF-α = assay: LPS-induced TNF-α production in human whole blood cell cultures (WEHI 164.13 bioassay); assay type: cell-based; settings: for % of Inhibition vs. DMSO Control / TNF-α: LPS 1 µg/mL; for % of Inhibition vs. DMSO Control: TNF-α production; for TNF-α: whole blood diluted 10×, overnight, single cultures; for Suppressive Effect on TNF-α Production: summary of structure-activity relationship, LPS-induced, whole blood
Method: Human whole blood was diluted 10× with RPMI-1640 medium and distributed to 24-well culture plates in 1 mL aliquots. LPS was added to the culture at a concentration of 1 µg/mL. The studied peptides were used at concentrations of 1, 10, and 100 µg/mL. After overnight incubation, the supernatants were harvested and frozen at −20 °C until cytokine determination. TNF-α activity was determined using a bioassay with the highly sensitive cell line WEHI 164.13 [29]. Briefly, cells were seeded at a concentration of 2 × 10^4 cells/well in quadruplicate. Increasing dilutions of the assayed supernatant were mixed with the target cells in the presence of actinomycin D (1 µg/mL). After 20 h of incubation, MTT was added into the wells, and the cultures were incubated for an additional 4 h. Next, a lysing buffer (20% SDS with 50% DMF, pH 4.7) was added and the OD at 550/630 nm in a spectrophotometer was measured after 24 h. The detection limit of the assay was about 2.5 pg/mL. One unit of TNF-α activity was defined as an inverse of supernatant dilution where 50% cell death took place. No statistics were applied here since the data were derived from single cultures (wells).

murine leukemia L1210 = settings: 100 μg/mL; unpublished
human PBMCs = assay: Proliferative response of PBMC to PHA (MTT); assay type: cell-based; settings: summary of structure-activity relationship; PHA-induced PBMC proliferation, 1-100 µg/mL
Method: PBMCs were isolated by centrifugation on a Ficoll-uropoline gradient (density 1.077 g/mL) (Lymphoprep, PAA Laboratories, Linz, Austria), at 800× g for 20 min at 4 °C. The interphase cells were then washed three times with Hanks’ medium and re-suspended in the culture medium (RPMI-1640 with 10% addition of FCS, L-glutamine, sodium pyruvate, 2-mercaptoetanol, and the antibiotics streptomycin and penicillin) at a density of 2 × 10^6 cells/mL.
The isolated PBMCs were distributed into 96-well flat-bottom plates in 100 µL aliquots (2 × 10^5 cells/well). PHA was used at a concentration of 5 µg/mL. The compounds were tested at concentrations of 1, 10, and 100 µg/mL. DMSO at appropriate dilutions served as a control solvent. After a 4-day incubation in a cell culture incubator, the proliferative response of the cells was determined by the colorimetric MTT method [28] in a Dynatech 5000 spectrophotometer. Data (OPSYS MR Dynex Technologies, Chantilly, VA, USA) are presented as a mean optical density (OD) at 550 nm, with a reference wavelength of 630 nm, from quadruplicate wells ± standard error (SE). The control cultures contained no PHA or PHA without the studied compounds.
The assay was performed by the MTT colorimetric method [29]. […] After additional overnight incubation, the OD was measured at 550/630 nm (Dynatech 5000 spectrophotometer).

[3] = tested on: carrageenan-induced inflammation of the air pouch, mouse model; assay: Carrageenan-induced inflammation of air pouches; assay type: in vivo; settings: 100 µg/mouse into air pouch; for Eosinophils in peripheral blood: control mice 9.6%; for Neutrophils in peripheral blood: control mice 37%; for Degranulated mastocytes in air pouches: control untreated air pouches 89.7%
Source text: as §1, §2
Air pouches were formed by a subdermal injection into the dorsal area (under halothane anesthesia) of 5 mL of air (23 G × 11/4 needle, 5 mL syringe). On the next day, the air pouches were supplemented by 1 mL of air and injected with 0.5 mL of 1% carrageenan solution in PBS. The peptides were dissolved in DMSO (1 mg/100 µL DMSO) and supplemented with 0.9% NaCl solution to a volume of 0.2 mL. P03 and 4B8M peptides were injected into air pouches at a dose of 100 µg/mouse 30 min after carrageenan administration. BG mice received the respective amount of DMSO in 0.9% NaCl. Control mice were given only carrageenan solution plus the respective amount of DMSO. The next day, the mice were bled to perform blood smears and sacrificed. A total of 1 mL of 0.9% NaCl was injected into air pouches and the content aspirated. From this source, a total number was determined, the rest were centrifuged, and from a cell pellet, the smears were performed on microscopic glasses and stained with Giemsa and May Grunwald reagents. The cell composition of air pouch exudates was analyzed and the results were shown as a percentage (mean values of the respective cell types: neutrophils, band forms of neutrophils, eosinophils, basophils, lymphocytes, macrophages, and mastocytes).
Five to nine mice per group were used in the experiments. Results (where applicable) are presented as mean values ± standard error (SE). The Brown–Forsyth test was used to determine the homogeneity of variance between groups. When the variance was homogenous, analysis of variance (one-way ANOVA) was applied, followed by post hoc comparisons with Tukey’s test to estimate the significance of the differences between groups. Nonparametric data were evaluated with the Kruskal–Wallis analysis of variance (ANOVA of K–W), as indicated in the text. Significance was determined at p < 0.05. Statistical analysis was performed using […] 7.0 for Windows.

mouse splenocytes = assay: ConA-induced proliferation of mouse splenocytes (unpublished data); assay type: cell-based; settings: other data (unpublished)

Compound	Inhibition of growth of A431 cells [1] [%]	Percentage of all myeloid cell types in circulating blood [2]	% of Inhibition vs. DMSO Control (TNF-α; peptide 1 µg/mL) [%]	TNF-α (TNF-α; peptide 1 µg/mL) [pg/mL]	% of Inhibition vs. DMSO Control (TNF-α; peptide 10 µg/mL) [%]	TNF-α (TNF-α; peptide 10 µg/mL) [pg/mL]	Suppressive Effect on TNF-α Production (TNF-α)	Inhibition of growth of L1210 cells (murine leukemia L1210) [%]	Suppressive Effect on Cell Proliferation (human PBMCs)	Eosinophils in peripheral blood [3] [%]	Neutrophils in peripheral blood [3] [%]	Degranulated mastocytes in air pouches [3] [%]	Inhibition of concanavalin A (ConA)-induced proliferation of mouse splenocytes (mouse splenocytes)
O=C1C[C@H](Cc2ccccc2)NC(=O)[C@@H]2CCCN2C(=O)[C@H]2CCCN2C(=O)[C@H](Cc2ccccc2)N1 [P03, cyclo-[D-Pro-Pro-β^3-HoPhe-Phe-]] (cyclo([dP]P[β3hF]F))	15	significantly reduced	25.9	6052	34.8	5222	strong	34	significant at 100 µg/mL	2.0	23	28.7	–
cyclo-[D-Pro-D-Pro-β^3-HoPhe-Phe-] (head to tail) [P07]	–	–	21.0	6453	9.0	7284	small	–	–	–	–	–	–
cyclo-[Pro-Pro-D-β^3-HoPhe-Phe-] (head to tail) [P04]	–	–	33.1	5463	33.8	5302	strong	–	–	–	–	–	–
cyclo-[D-Pro-D-Pro-D-β^3-HoPhe-D-Phe-] [P06]	–	–	1.6	8033	4.4	7658	absent	–	–	–	–	–	–
cyclo[Pro-Pro-β^3-HoPhe-D-Phe-] (head to tail) [P01]	–	–	14.1	7016	28.1	5757	–	–	–	–	–	–	–
cyclo-[Pro-D-Pro-β^3-HoPhe-Phe-] (head to tail) [P05]	–	–	12.8	7123	10.0	7203	–	–	–	–	–	–	–
cyclo[Pro-Pro-β^3-HoPhe-Phe-] (head to tail) [P00, cyclo-[Pro-Pro-β^3-HoPhe-Phe-], reference compound]	–	–	9.8	7364	10.4	7176	–	–	–	3.4	31.5	39.5	moderate inhibition
cyclo- [P02, cyclo-[D-Pro-D-Pro-β^3-HoPhe-D-Phe-]]	–	–	19.0	6614	20.7	6346	small	–	–	–	–	–	–
